Key:
20S proteasome = 20S proteasome activity in lysates of treated PC3 cells; assay type: cell-based, human; conditions: PC3, 12 h
Experimental: Proteasome activity (EC 3.4.25.1) was evaluated on the same cell lysates as used to assay TrxR. Proteasome activity was assayed in cytosolic extracts using the 20S Proteasome Activity Assay kit APT280 (Merck Millipore) and a computer-interfaced GeniusPlus microplate reader (Tecan).

[1] = tested on: thioredoxin reductase (TrxR); assay: Thioredoxin reductase activity in lysates of treated PC3 cells; conditions: PC3, C6 at IC25, IC50, IC75, 12 h
Experimental: All experimental conditions were tested in triplicate and experiments were done three times to calculate means and SD.
Thioredoxin reductase (TrxR) (EC 1.8.1.9) was assayed using the Thioredoxin Reductase Assay Kit (Sigma-Aldrich). […] Enzyme activity was determined reading absorbance at 412 nm using a spectrophotometer (Biomate 3 Thermo Spectronic). The enzymatic activity was normalized to the protein concentration, determined using the Bio-Rad protein assay (Protein Assay Dye Reagent Concentrate, Bio-Rad Laboratories), and expressed as percentage of control (no C6).

PC3 cells [2] = assay: Double-stranded DNA breaks (histone H2A.X phosphorylation); assay type: cell-based, human; conditions: PC3, 24 h
Experimental: The presence of double-stranded DNA breaks was assessed 24 h after treatment with C6 by fixing and permeabilizing cells with Fix & Perm medium A and B (Invitrogen) and staining with FITC anti-H2A.X Phospho (Ser139) Antibody (BioLegend, San Diego, USA). Stained cells were evaluated by flow cytometry.

PC3 cells [3] = assay: In vitro scratch assay (cell migration); assay type: cell-based, human; conditions: PC3, 3 h pretreatment with C6 (IC50), 36 h after scratch; control about 10%
Experimental: Cell migration was assessed using the in vitro scratch assay. Briefly, cells were grown to confluence and then treated with C6 (IC50). After 3 h, monolayers were washed twice with PBS, scraped with a pipette tip to create a “wound” in the monolayer, and washed again. Culture medium with 2% (not 10%) FBS was added and the cells were cultured for 36 h. Wounds were photographed every 12 h using an inverted microscope (EclipseTS/100, Nikon) at magnification 4×. Migration was assessed by measuring the cell-free area (in pixels) with ImageJ tool software after 12, 24 and 36 h.

[4] = tested on: normal human adipose-derived stromal cells (ADSCs); assay: Growth inhibition in adipose-derived stromal cells (MTT, 72 h); assay type: cell-based; conditions: MTT after 72 h
Experimental: Human adipose-derived stromal cells (ADSCs) were from Lonza (Verviers, Belgium). ADSCs were maintained in MSGM bullet kit (Lonza) and experiments were performed in DMEM (Cambrex Bio Science, Milan, Italy) supplemented with 10% FBS. To evaluate effects of C6, ADSCs were seeded in 96-well flat-bottomed microplates (5.0×10^3 cells in 100 μL per well) and incubated for 24 h (to allow cell adhesion) before drug testing. The medium was removed and replaced with fresh medium containing C6 at increasing concentrations (from 0.1 to 1 μM). Cells were incubated at 37° ° C. for 72 h. Each treatment was performed in triplicate. Cell growth was measured using the MTT assay.

PC3 cells [5] = assay: Cell cycle distribution (PI staining); assay type: cell-based, human; conditions: vs untreated cells
Experimental: To assay the distribution of cells in the various phases of the cell cycle, PC3 cells were treated with C6 for 48 h, then harvested, fixed in cold 70% ethanol for 15 min and stained with PI solution (50 μg/mL PI, 0.1% NP-40, 100 μg/mL PureLink RNase A, 0.1% sodium citrate). After 1 h, cells were analyzed by flow cytometry. The distribution of cells in different cell cycle phases was quantified using ModFit LT 4.0 software.

caspase 3,7 = assay: Caspase 3,7 activation (FLICA, flow cytometry); assay type: cell-based, human; conditions: PC3, 24 h
Experimental: (§1) For apoptosis assays, PC3 cells were treated with C6 for 24 h and then apoptosis was assayed by staining for 15 min with FITC Annexin V reagent (BD Pharmingen) and propidium iodide (PI). Apoptotic cells were detected by flow cytometry (BD FACSCanto II flow cytometer) and analyzed using BD FACSDiva v8.0.1 software (BD Biosciences). Caspase 3,7 activation was evaluated using fluorochrome-labeled inhibitors of caspases (FLICA) of the CaspaTag Caspase 3,7 In Situ Assay Kit, Fluorescein (Millipore) and evaluated by flow cytometry; data were expressed as mean fluorescence intensity.

[6] = tested on: MG-63 osteosarcoma cell line; assay: Cytotoxicity assay (MTT, 72 h); assay type: cell-based, human; conditions: MG63, MTT after 72 h, mean (SD); read-out: Half-maximal inhibitory concentration (IC50)
Experimental: R-ME-180 and A2780cis cells were maintained in 1 μM cisplatin. Adipose-derived stromal cells were maintained in MSCGM BulletKit medium (Lonza). All cell lines were cultured at 37° C. in a 5% CO2, fully humidified atmosphere
Cell lines were seeded in 96-well flat-bottomed microplates in 100 μL culture medium at the following densities: DU145, PC3 and MCF-7 cells (2.5×10^3 cells/well); A2780, A2780cis, ME-180, R-ME-180 and A549 cells (4.0×10^3 cells/well); and MG-63 cells (2.0×10^3 cells/well). Cells were allowed to adhere for 24 h. Then the medium was replaced with fresh medium alone or with one of the gold(III) complexes at increasing concentrations from 0 to 100 μM. The reference drugs cisplatin (0-100 μM) and doxorubicin (0-1 μM) were included as positive controls for growth inhibition. After 72 h, cell viability was assayed using the MTT assay.
See Chou T. C.; Talalay P. Quantitative analysis of dose-effect relationships: the combined effects of multiple drugs or enzyme inhibitors. […] 22, 27-55, incorporated herein by reference in its entirety. IC50 values were reported as mean (SD). For drug-resistance cell lines, fold resistance (FR) was calculated as the ratio of the IC50 of the resistant cell line to the IC50 of the parental cell line.

PC3 cells [7] = assay: Cellular uptake of gold(III) complexes (ICP-MS); assay type: cell-based, human; conditions: 3 μM, 2 h, ICP mass spectrometry
Experimental: After treatment, monolayers were washed with ice-cold PBS four times, and the cells were detached with trypsin-EDTA and washed three times with ice-cold PBS by centrifugation. The cell pellet was solubilized in 700 μL of HNO3—HCl solution (1:3 molar ratio) for 2 h at 100° C., and then diluted with 4 mL water. Samples were analyzed for gold on an Agilent 7500 inductively coupled plasma mass spectrometer (ICP-MS). Results were expressed as ng gold/10^6 cells. The experiment was performed a total of two times and the results were expressed as mean and SD.

PC3 cells [8] = assay: Apoptosis assay (Annexin V-FITC / propidium iodide, flow cytometry); assay type: cell-based, human; conditions: PC3, C6 at IC50 and IC75, 24 h
Experimental: as §1

PC3 cell xenografts = assay: Human prostate tumor xenograft experiment; assay type: in vivo, female athymic nude mice
Experimental: Animal experiments were approved by the Italian Ministry of Health (no. 671/2015/PR). Ten 4-week-old female athymic nu/nu (nude) mice were purchased from Envigo. PC3 cells (3×10^6 in a 0.1 mL solution of Matrigel 1:3 in PBS) were inoculated subcutaneously into the right flank of each mouse. Body weight and tumors were measured three times a week, and tumor volumes were calculated according to the formula: (width^2×length×3.14)/6. When tumors reached a volume of ca. 120 mm^3, mice were divided into two groups of five animals each. Mice were treated every other day with an intratumoral injection of 2.5 mg/kg C6 or an equal volume of vehicle (10% DMSO, 20% Cremophor Sigma-Aldrich, 70% PBS). Mice were killed on day 32 when control tumors had reached about 1300 mm^3.

C[N+](C)=C1[S][Au-]2([S]1)[n+]1ccc[n+]3c1-c1[n+]2ccc[n+]1[Au-]31[S]C(=[N+](C)C)[S]1.[Cl-].[Cl-].[Cl-].[Cl-] [C6, [Au2(BPM)(DMDTC)2]Cl4]
20S proteasome activity (20S proteasome): dose-dependent inhibitory effect
TrxR enzymatic activity [1]: dose-dependent decrease of its enzymatic activity
double-stranded DNA breaks (phosphorylation of histone H2A.X) (PC3 cells [2]): increase in phosphorylation of histone H2A.X
remaining uncovered area in scratch assay (PC3 cells [3]): about 40%
IC50 [4]: 1400 nM
distribution of cells in the cell cycle (PC3 cells [5]): increasing the percentage of cells in S phase and decreasing that in G1
caspase 3,7 activation (FLICA) (caspase 3,7): activated caspase 3,7
IC50 [6]: 800 nM
amount of internalized gold (cellular uptake) (PC3 cells [7]): internalization even greater than that of C7
percentage of annexin-V-positive and annexin-V/PI-positive cells (apoptosis) (PC3 cells [8]): dose-dependent increase in the percentage of annexin-V-positive cells
inhibitory effect on tumor growth (PC3 cell xenografts; day 32, 2.5 mg/kg intratumoral every other day, vs vehicle): 71%
mean tumor volume (PC3 cell xenografts; day 32, 2.5 mg/kg intratumoral every other day, control 1327 mm^3): 385 mm^3
weight of the animals (PC3 cell xenografts; xenografted mice, 2.5 mg/kg intratumoral): did not affect the weight of the animals

Source: US12103939B2, “Solid pharmaceutical gold-based composition” (KING FAHD UNIVERSITY OF PETROLEUM AND MINERALS, priority 2019, dated 2024)
